# Where “and” joins values, the source holds several entries; their conditions need not be identical. Equal values may be shown once. Read-outs that look alike come from different tables or passages of the source.
# Target: human dopamine transporter (hDAT) (Homo sapiens, UniProt Q01959)
# Assay: cell-based
# Assay type: cell-based
# Conditions: for Depolarizing current: data not shown; for Relative persistent current (Ip relative to Io) after washout: as a function of concentration, Ip current remaining after washout before block with cocaine
# [1] = Hill fit of dose-response normalized to 10 μM DA, −60 mV
# [2] = ability to generate a persistent current at 10 μM and −60 mV
# Sequence of human dopamine transporter (hDAT) (Q01959 whole entry): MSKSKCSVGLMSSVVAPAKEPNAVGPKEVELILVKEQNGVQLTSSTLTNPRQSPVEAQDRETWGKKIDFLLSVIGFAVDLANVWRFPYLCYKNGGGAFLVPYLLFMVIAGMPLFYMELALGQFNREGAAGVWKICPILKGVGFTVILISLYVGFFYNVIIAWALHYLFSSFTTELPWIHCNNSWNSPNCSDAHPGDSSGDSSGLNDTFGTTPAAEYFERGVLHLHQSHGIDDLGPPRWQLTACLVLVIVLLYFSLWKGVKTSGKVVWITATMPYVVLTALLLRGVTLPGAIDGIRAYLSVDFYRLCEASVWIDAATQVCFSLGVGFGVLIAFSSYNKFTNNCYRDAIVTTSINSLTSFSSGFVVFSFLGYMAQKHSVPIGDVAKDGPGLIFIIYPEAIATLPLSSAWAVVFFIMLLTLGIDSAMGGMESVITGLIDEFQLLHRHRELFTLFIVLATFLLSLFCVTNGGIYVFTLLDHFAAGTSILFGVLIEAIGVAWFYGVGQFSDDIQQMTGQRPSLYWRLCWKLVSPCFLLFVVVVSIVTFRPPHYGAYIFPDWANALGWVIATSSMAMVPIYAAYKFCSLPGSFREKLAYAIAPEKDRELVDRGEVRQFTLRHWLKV
compound,measurement,setting,value
"COc1ccc(CCN)cc1 [compound 8, 2-(4-Methoxyphenyl)-1-aminoethane]",Depolarizing current,10 μM,comparatively small depolarizing currents
"Br.C[C@H](N)Cc1ccc(O)c(O)c1 [S(+) α-Me DA (S7), S(+)-1-(3,4-Dihydroxyphenyl)-2-aminopropane hydrobromide]",Hill coefficients,[1],0.71 ± 0.11
same,Persistent Current,[2],No
"C[C@H](N)Cc1ccc(O)cc1.Cl [S(+) α-Me 3-des-OH DA (S6), S(+)-1-(4-Hydroxyphenyl)-2-aminopropane hydrochloride]","Recovery time constant T50 upon removal of compound, compared to DA","10 μM, −60 mV, normalized to 10 μM DA in same cell",no significant differences
same,Hill coefficients,[1],0.49 ± 0.05
same,Persistent Current,[2],No
same,Relative persistent current (Ip relative to Io) after washout,−60 mV,much lower persistent current than S(+)AMPH (S1)
"COC(=O)[C@H]1[C@@H](OC(=O)c2ccccc2)C[C@@H]2CC[C@H]1N2C [Cocaine, reference compound]",Block of induced currents through hDAT,,blocks the DA- and R(−)AMPH-induced initial currents
"NCCc1ccc(O)c(O)c1 [DA (2), dopamine, reference compound]",Hill coefficients,,1.32 ±0.07
same,Persistent Current,,No
same,Rank order of efficacy,,S(+)AMPH > DA > R(−)AMPH
"Cl.NCCc1ccc(O)cc1 [3-des-OH DA (3), 2-(4-Hydroxyphenyl)-1-aminoethane hydrochloride]",Hill coefficients,,0.91 ±0.08
same,Persistent Current,,no pronounced persistent current and No
same,EC50,EC50,1450 nM and 1430 nM
"COC(=O)[C@H]1C(c2ccc(I)cc2)C[C@@H]2CC[C@H]1N2C (stereo partly shown) [RTI-55, reference compound]",Block of S(+)AMPH-induced initial peak current and persistent current,"10 μM RTI-55, −60 mV",blocked
"Br.C[C@@H](N)Cc1ccc(O)c(O)c1 [R(−) α-Me DA (R7), R(−)-1-(3,4-Dihydroxyphenyl)-2-aminopropane hydrobromide]",Hill coefficients,[1],0.55 ± 0.06
same,Persistent Current,[2],No
"NCCc1cccc(O)c1 [4-des-OH DA (4), 2-(3-Hydroxyphenyl)-1-aminoethane]",Hill coefficients,[1],1.07 ±0.09
same,Persistent Current,[2],No
same,Persistent Current,"ability to generate a persistent current at 10 μM and −60 mV, listed as 4-des-OH DA",no pronounced persistent current
"NCCc1ccccc1 [β-PEA (5), 2-phenyl-1-aminoethane, reference compound]",Persistent Current,"100 μM, −60 mV",pronounced persistent current
same,Hill coefficients,[1],1.06 ± 0.16
same,Persistent Current,[2],Yes
same,Relative persistent current (Ip relative to Io) after washout,−60 mV,much lower persistent current than S(+)AMPH (S1)
"C[C@@H](N)Cc1ccc(O)cc1.Cl [R(−) α-Me 3-des-OH DA (R6), R(–)-1-(4-Hydroxyphenyl)-2-aminopropane hydrochloride]",Hill coefficients,[1],0.98 ± 0.08
same,Persistent Current,[2],No
same,Relative persistent current (Ip relative to Io) after washout,−60 mV,much lower persistent current than S(+)AMPH (S1)
"COc1cccc(CCN)c1 [compound 9, 2-(3-methoxyphenyl)-1-aminoethane]",Depolarizing current,10 μM,comparatively small depolarizing currents
